Assay results published in patent publication US6686484B2, “Polycyclic aryl and heteroaryl substituted 1,4-quinones useful for selective inhibition of the coagulation cascade” (Pharmacia Corporation, priority 2000, dated 2004).

Columns and labels:
Format in all cases: biochemical
human thrombin = human thrombin (Homo sapiens, UniProt P00734); assay: Thrombin Assay; details: substrate H-D-Phenylalanyl-L-pipecolyl-L-arginine-p-nitroaniline, 60 min room temperature, OD 405 nm; read-out: Thrombin II IC50
[1] = biological target: T1, recombinant soluble tissue factor and recombinant human factor VIIa (TF-VIIA) (Homo sapiens, UniProt P08709); assay: TF-VIIa Assay; details: chromogenic substrate N-Methylsulfonyl-D-phe-gly-arg-p-nitroaniline, 60 min room temperature, OD 405 nm
T1 construct: conversion of coagulation factor VII to VIIa by Xa; purchased American Diagnostica, Greenwich Conn; (VIIa); soluble TF made in house in E. coli; host or cells: E. coli (soluble TF)
T1 sequence (P08709 213-466 limits assumed): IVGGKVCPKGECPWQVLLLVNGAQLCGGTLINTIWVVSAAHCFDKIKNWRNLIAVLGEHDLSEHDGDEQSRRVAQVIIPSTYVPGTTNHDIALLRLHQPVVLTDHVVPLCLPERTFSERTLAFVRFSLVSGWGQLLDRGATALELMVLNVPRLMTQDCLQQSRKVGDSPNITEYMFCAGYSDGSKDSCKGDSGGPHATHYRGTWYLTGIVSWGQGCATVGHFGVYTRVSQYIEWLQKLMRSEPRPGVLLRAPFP
T1 sequence (P08709 61-212 limits assumed): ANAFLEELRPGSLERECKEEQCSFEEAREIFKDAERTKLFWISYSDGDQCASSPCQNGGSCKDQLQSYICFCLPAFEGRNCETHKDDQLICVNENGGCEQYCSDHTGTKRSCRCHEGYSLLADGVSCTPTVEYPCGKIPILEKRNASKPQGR
T1 sequence (P13726 33-251 partner limits assumed): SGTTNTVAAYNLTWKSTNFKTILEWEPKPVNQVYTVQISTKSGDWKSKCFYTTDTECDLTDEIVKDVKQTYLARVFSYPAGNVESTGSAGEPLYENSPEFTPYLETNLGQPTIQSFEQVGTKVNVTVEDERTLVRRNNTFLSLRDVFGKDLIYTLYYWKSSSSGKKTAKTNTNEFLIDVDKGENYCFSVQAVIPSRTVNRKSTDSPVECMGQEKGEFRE

[2] = biological target: T2, trypsin, type IX from porcine pancreas (Sus scrofa, UniProt P00761); assay: Trypsin Assay; details: substrate L-BAPNA, 60 min room temperature, OD 405 nm; read-out: Trpysin II IC50
T2 construct: purchased Sigma, St. Louis Mo; host or cells: porcine pancreas
T2 sequence (P00761 9-231): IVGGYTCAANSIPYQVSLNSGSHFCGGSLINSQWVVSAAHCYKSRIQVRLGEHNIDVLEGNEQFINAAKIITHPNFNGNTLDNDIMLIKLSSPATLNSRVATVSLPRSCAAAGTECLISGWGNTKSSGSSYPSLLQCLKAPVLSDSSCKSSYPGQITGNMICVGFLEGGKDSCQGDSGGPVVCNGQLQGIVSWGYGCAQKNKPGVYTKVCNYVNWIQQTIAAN
Experimental: 5 ug/ml trypsin, type IX from porcine pancreas and 0.375 mM N-α-Benzoyl-L-arginine-p-nitroanilide (L-BAPNA) are added to a 96-well assay plate containing either inhibitor or buffer (50 mM Tris-HCl, pH 8.0, 100 mM NaCl, 0.1% BSA). The reactions, in a final volume of 100 ul are measured immediately at 405 nm to determine background absorbance. The plate is incubated at room temperature for 60 min, at which time the rate of hydrolysis of the substrate is measured by monitoring the reaction at 405 nm for the release of p-nitroaniline. Percent inhibition of trypsin activity is calculated from OD405nm value from the experimental and control sample.
Recombinant soluble TF, consisting of amino acids 1-219 of the mature protein sequence was expressed in E. coli and purified using a Mono Q Sepharose FPLC. Recombinant human VIIa was purchased from American Diagnostica, Greenwich Conn. and chromogenic substrate N-Methylsulfonyl-D-phe-gly-arg-p-nitroaniline was prepared by American Peptide Company, Inc., Sunnyvale, Calif. Factor Xa was obtained from Enzyme Research Laboratories, South Bend Ind., thrombin from Calbiochem, La Jolla, Calif., and trypsin and L-BAPNA from Sigma, St. Louis Mo. The chromogenic substrates S-2765 and S-2238 were purchased from Chromogenix, Sweden.

IC50 (human thrombin) [µM]	IC50 [1] [µM]	IC50 [2] [µM]	Compound
0.96	1.3	0.74	N=C(N)c1ccc(CNC(=O)CC2=C(c3ccccc3)C(=O)C=C(NCCc3ccccc3)C2=O)cc1 [Example 2]
		0.11	CC(C)NC1=CC(=O)C(c2ccccc2)=C(CC(=O)NCc2ccc(C(=N)N)cc2)C1=O [Example 1]
